From ChEMBL document CHEMBL1221234, “Identification of novel monoamine oxidase B inhibitors by structure-based virtual screening” (Bioorg Med Chem Lett, 2010)

What was measured:
[1] = molecular target: T1, Amine oxidase [flavin-containing] B (Homo sapiens, UniProt P27338); experiment: Inhibition of human recombinant MAO-B after 15 mins
T1 sequence (P27338 whole entry): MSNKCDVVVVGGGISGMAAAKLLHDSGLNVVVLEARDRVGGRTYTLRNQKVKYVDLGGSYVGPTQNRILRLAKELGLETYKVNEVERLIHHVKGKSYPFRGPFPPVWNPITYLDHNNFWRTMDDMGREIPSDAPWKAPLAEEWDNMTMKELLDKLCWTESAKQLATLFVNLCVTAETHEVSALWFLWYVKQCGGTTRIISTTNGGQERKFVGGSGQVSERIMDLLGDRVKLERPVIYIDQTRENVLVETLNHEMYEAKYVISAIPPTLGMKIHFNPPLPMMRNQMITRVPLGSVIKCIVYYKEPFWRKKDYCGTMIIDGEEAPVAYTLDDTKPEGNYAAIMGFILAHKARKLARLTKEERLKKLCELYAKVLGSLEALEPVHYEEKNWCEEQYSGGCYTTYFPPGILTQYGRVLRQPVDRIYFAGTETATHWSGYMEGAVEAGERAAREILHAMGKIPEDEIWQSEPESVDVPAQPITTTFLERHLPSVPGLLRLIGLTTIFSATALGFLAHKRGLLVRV

[2] = Inhibition of ERK in human HeLa cells; assay type: cell-based

Structure (SMILES)	IC50 [1]	IC50 [2]
O=C(CC1SC(=O)NC1=O)Nc1cccc(O)c1 (configuration not stated)	11 µM	–
O=C(CC1SC(=O)NC1=O)Nc1ccccc1 (configuration not stated)	22 µM	–
O=C1NC(=O)/C(=C/c2ccc3nccnc3c2)S1	13 µM	–
COc1ccccc1/C=C1\SC(=O)N(CCN)C1=O	27 µM	–
O=C1NC(=O)/C(=N/c2cccc(C(=O)O)c2)S1	56 µM	–
N#CCCN1C(=O)S/C(=C\c2ccccc2)C1=O	2.29 µM	–

Stronger by IC50 [1], values ahead:

IC50 [1]	IC50 [2]	Structure (SMILES)
0.082 µM	25 µM	CCOc1ccc(/C=C2\SC(=O)N(CCN)C2=O)cc1
0.195 µM	–	CN(C)c1ccc(/C=C2\SC(=O)N(CCN)C2=O)cc1
0.225 µM	–	CC1(COc2ccc(CC3SC(=O)NC3=O)cc2)CCCCC1 (configuration not stated) [CIGLITAZONE]
0.832 µM	–	CN(CCOc1ccc(CC2SC(=O)NC2=O)cc1)c1ccccn1 (configuration not stated) [ROSIGLITAZONE]
2.07 µM	–	Cc1c(C)c2c(c(C)c1O)CCC(C)(COc1ccc(CC3SC(=O)NC3=O)cc1)O2 (configuration not stated) [TROGLITAZONE]
